Data on 14 molecules can be found in publication PMC7961380, “A Systematic Study of the In Vitro Pharmacokinetics and Estimated Human In Vivo Clearance of Indole and Indazole-3-Carboxamide Synthetic Cannabinoid Receptor Agonists Detected on the Illicit Drug Market” (Molecules, 2021).

The conditions of data set [1]: HLM, ref 14 (THJ-018, THJ-2201), 15 (NNEI, MN-18), 106 (NM-2201), 107 (BIM-2201), 108 (STS-135), 16 (AB-PINACA, 5F-AB-PINACA), 54 (5F-MDMB-PINACA), 69 (AB-FUBINACA), 17 (ADB-FUBINACA), 97 (FDU-PB-22, FUB-PB-22), cited from earlier work; for CLint micr / t1/2: 95 (Cumyl-PICA, 5F-Cumyl-PICA), 109 (5F-APP-PICA, 5F-APP-PINACA; for CLint micr: 73 (5F-AMB-PINACA); for t1/2 / CLint: 57 (AMB-4en-PICA); for t1/2: 73 (AMB-PINACA, 5F-AMB-PINACA).

A short description of data set [2]: Chromatographic hydrophobicity index (CHI) log D at pH 7.4. Particulars: reversed-phase HPLC, Acquity BEH C18 column.
Protocol: Chromatographic hydrophobicity index (CHI) log D samples (see below) were analysed using high-performance liquid chromatography (HPLC) with a Shimadzu Nexera X2 HPLC coupled to a Shimadzu SPD-30 MA photodiode array detector (PDA) (Shimadzu, Kyoto, Japan). […] The sample chamber was maintained at 25 °C. Gradient elution was performed, with mobile phase (MP) consisting of ammonium acetate in water (10 mM, pH 7.4) (MP A) and acetonitrile (MP B).
A calibration mix of ten compounds at 10 µg mL^−1 in 1:1 (v/v) water:ACN was used (theophylline, phenyltetrazole, benzimidazole, colchicine, phenyltheophilline, acetophenone, indole, propiophenone, butyrophenone and valerophenone (all Sigma-Aldrich)). Test compounds were prepared at 0.25 mM in 1:1 (v/v) water:ACN. Samples (n = 2 for calibration standards; n = 1 for test compounds) were analysed using UPLC-PDA as described above. Retention times of calibration compounds are used to calculate retention factor (k), which is plotted against literature CHI values for each compound.
Where tr is the retention time of the analyte and t0 is the retention time of an unretained compound
Calculation of chromatographic hydrophobicity index (CHI)
CHI = (𝑘 x slope) − intercept Eqn.4
Where k is the retention factor of the analyte.
Calculation of CHI Log D [1]
Where CHI is the chromatographic hydrophobicity index obtained using Equation 4
Data set [3] can be described thus: Metabolic stability, pooled human liver microsome incubations. The note with it: pHLM; vs refs 69 (AB-FUBINACA), 54 (5F-MDMB-PINACA).
For data set [4], the system named is human hepatocytes (HHeps). Particulars: HHeps (asterisk); ref 13 (JWH-122, MAM-2201, Cl-, Br-, I-JWH-122), 105 (AM1220); cited from earlier work.
For data set [5] the following is noted: cited from earlier work.
Data set [6] can be described thus: Theoretical fraction unbound for hepatocytes (fuhep) from log D7.4. Details: species or system human. Particulars: calculated from experimental log D7.4 as Kilford et al. (2008), cell volume 3.9 µL/million cells. The text has this: For all MDMB- compounds, and for most (S)-AMB-compounds differences in CLint were within 2.5-fold. […] There are multiple factors which can cause intrinsic clearance by HHeps to differ from HLM [89]. Differences may reflect the relative efficiency of transport of SCRAs and their enantiomers through cell membranes in HHeps and the relative abundance of particular enzymes in HLM and HHeps, targeting different sites of metabolism, particularly carboxylesterases. A dominance of non-CYP enzymes in metabolic clearance can result in CLint being faster in HHeps. […] Glucuronidation is therefore unlikely to cause the differences in clearance rates observed. […] CES-1 is one of the most abundant enzymes in human hepatocytes, present in the endoplasmic reticulum and to a lesser extent in the cytosol. Non-specific binding of drugs to microsomes and hepatocytes results in a lower unbound fraction available to interact with enzymes; differences in binding between HLM and HHep incubations may therefore also cause clearance differences. Non-specific binding may be estimated from log P data. Theoretical fraction unbound for microsomes (fumic) and hepatocytes (fuhep) was calculated using experimental pHLM and pHHep concentrations and incubation volumes, and experimental log D7.4 values, as described by Kilford et al. (2008) with hepatocyte cell volume as 3.9 µL/million cells. […]

A short description of another data set: in vitro. Particulars: human, plasma, pH 7.4.
Details of data set [7]: method as in PMID 17712819. Particulars: cited from earlier work.

Protocol for in vitro: The pooled plasma used for both plasma stability and plasma binding studies originated from 50 donors, collected as whole blood from donors in the United States at an FDA-approved collection center, processed into plasma by centrifugation and immediately frozen (Innovative Research; Novi, MI, USA) and purchased from Patricell (Nottingham, UK). […] Stock solutions were prepared in DMSO. […] For incubations without inhibitor an equivalent volume of DMSO was included. Plasma mixture was pre-incubated at 37 °C for 5 min. Test compounds (5 µM) and procaine (positive control, 50 µM) were added to pre-warmed plasma mixture containing inhibitors. Incubation volume was 1 mL. Samples were mixed and 80 µL was immediately sampled and quenched into 200 µL ACN spiked with donepezil (internal standard (IS), 50 ng mL^−1). […] Peak area ratio of analyte to IS was used to determine half-lives of test compounds in plasma, both with and without the presence of esterase inhibitors.
The human plasma used was pooled from 50 donors, and was collected as whole blood from donors in
the United States at an FDA-approved collection center, processed into plasma by centrifugation and
The stability of the tested SCRAs, select metabolites and procaine control in pooled human plasma over
inhibitors bis(4-nitrophenyl) phosphate (BNPP) and phenyl methyl sulphonyl fluoride (PMSF) is

Broadly, the chromatographic logD is lipophilicity estimated from chromatographic retention. Consider `COC(=O)[C@@H](NC(=O)c1nn(CCCCCF)c2ccccc12)C(C)C` [5F-AMB-PINACA (10), methyl [1-(5-fluoropentyl)-1H-indazole-3-carbonyl]valinate], for which, in data set [1], the CLint micr was 670 µL/min/mg and the t1/2 was 1.0 min. This molecule also yielded a chromatographic logD in data set [2] of 4.07.
In the case of `COC(=O)C(NC(=O)c1nn(CCCCCF)c2ccccc12)C(C)(C)C` (centres unmarked) [5F-MDMB-PINACA (2), methyl 2-[1-(5-fluoropentyl)-1H-indazole-3-carboxamido]-3,3-dimethylbutanoate], in data set [3], the “CLH prediction lower than literature prediction without PPB” value was 4 fold and the “EH prediction lower than literature prediction without PPB” value is reported as 4 fold. Moreover, in data set [1], the CLint micr was 271 µL/min/mg, the t1/2 is on record as 3.1 min and the CLint was 256.2 mL/min/kg. In data set [2], this molecule had a chromatographic logD of 4.5.
For the molecule `CC(C)C(NC(=O)c1nn(Cc2ccc(F)cc2)c2ccccc12)C(N)=O` (centres unmarked) [AB-FUBINACA (8), N-(1-amino-3-methyl-1-oxobutan-2-yl)-1-(4-fluorobenzyl)-1H-indazole-3-carboxamide], in data set [3], the “CLH prediction lower than literature prediction without PPB” value is listed as 20 fold and the “EH prediction lower than literature prediction without PPB” value is listed as 17 fold. For the same molecule, in data set [1], the CLint micr was 11 µL/min/mg, the t1/2 is reported as 62.6 min and the CLint was 10.5 mL/min/kg. The same molecule came in with a chromatographic logD in data set [2] of 2.81.
With `CN1CCCCC1Cn1cc(C(=O)c2cccc3ccccc23)c2ccccc21` (centres unmarked) [AM1220], in data set [4], the CLint was 169 mL/min/kg and the t1/2 is recorded as 3.7 min.
`C=CCCCn1cc(C(=O)NC(C(=O)OC)C(C)C)c2ccccc21` (centres unmarked) [AMB-4en-PICA (7), methyl 3-methyl-2-[(1-pent-4-enylindole-3-carbonyl)amino] butanoate]: in data set [1], the t1/2 is given as 2.1 min and the CLint was 291 mL/min/kg. In data set [2], this molecule showed a chromatographic logD of 3.97.
As to `Cc1ccc(C(=O)c2cn(CCCCCBr)c3ccccc23)c2ccccc12` [Br-JWH-122], in data set [4], the CLint is 497 mL/min/kg and the t1/2 was 2.49 min.
Regarding `Cc1ccc(C(=O)c2cn(CCCCCCl)c3ccccc23)c2ccccc12` [Cl-JWH-122], in data set [4], the CLint was 502 mL/min/kg and the t1/2 was 2.46 min.
In the case of `Cc1ccc(C(=O)c2cn(CCCCCI)c3ccccc23)c2ccccc12` [I-JWH-122, (1-(5-iodopentyl)-1H-indol-3-yl)(4-methylnaphthalen-1-yl)methanone], in data set [4], the CLint was 235 mL/min/kg and the t1/2 is given as 5.26 min.
As for `CCCCCn1cc(C(=O)c2ccc(C)c3ccccc23)c2ccccc21` [JWH-122, (4-methyl-1-naphthyl)-(1-pentylindol-3-yl)methanone], in data set [4], the CLint was 1350 mL/min/kg and the t1/2 is given as 0.95 min.
As a reminder, the log P is a log measure of how a compound divides between an organic and an aqueous phase. With `CCCCCn1cc(C(=O)c2ccc(CC)c3ccccc23)c2ccccc21` [JWH-210, 4-ethylnaphthalen-1-yl-(1-pentylindol-3-yl)methanone], the log partition coefficient (log P) in data set [5] is listed as 7.5.
Consider `Cc1ccc(C(=O)c2cn(CCCCCF)c3ccccc23)c2ccccc12` [MAM-2201], for which, in data set [4], the CLint is 1408 mL/min/kg and the t1/2 is on record as 0.88 min.
In the case of `C=CCCCn1nc(C(=O)NC(C(=O)OC)C(C)(C)C)c2ccccc21` (centres unmarked) [MDMB-4en-PINACA (5), methyl 3,3-dimethyl-2-[1-(pent-4-en-1-yl)-1H-indazole-3-carboxamido] butanoate], the “estimated fuhep (theoretical fraction unbound for hepatocytes)” value in data set [6] is given as 0.47. This molecule also had a chromatographic logD in data set [2] of 4.95.
One may read the half-life as how long it takes for the measured level to halve. What is called fraction remaining is what is left of the initial amount, in per cent. Higher therefore signals greater stability. In the data set “in vitro”, `CCN(CC)CCOC(=O)c1ccc(N)cc1` [Procaine] had a half-life of 6.5 min, an amount remaining at 3 h of 0.03 ± 0.02% and a share remaining at 5 h of 0.08%.
`CCCCCc1cc(O)c2c(c1)OC(C)(C)[C@@H]1CCC(C)=C[C@@H]21` [THC, Δ9-tetrahydrocannabinol]: the protein-bound in plasma in data set [7] is listed as 95–99%. In data set [5], the lipophilicity (log P) is 6.7.
